In patent publication US20070072831A1, “Integrase inhibitor compounds” (GILEAD SCIENCES, INC., priority 2005, published 2007):
Read-outs that look alike come from different tables or passages of the source.

How the values were obtained:
[1] = tested on: HIV-IIIb; experiment: Antiviral assay in MT-4 cells infected with HIV-IIIb; type: cell-based; conditions: MT4, 120 h, read-out: EC50 Range MT-4
Description: See: Wolfe, etal J. Virol.
Antiviral Assays in MT2 and MT4 Cells
For the antiviral assay utilizing MT-2 cells, 50 μl of 2× test concentration of 5-fold serially diluted compound in culture medium with 10% FBS was added to each well of a 96-well plate (9 concentrations) in triplicate. MT-2 cells were infected with HIV-IIIb at a multiplicity of infection (m.o.i) of 0.01 for 3 hours. Fifty microliters of infected cell suspension in culture medium with 10% FBS (˜1.5×10^4 cells) was then added to each well containing 50 μl of diluted compound. The plates were then incubated at 37° C. for 5 days. For the antiviral assay utilizing MT-4 cells, 20 μl of 2× test concentration of 5-fold serially diluted compound in culture medium with 10% FBS was added to each well of a 384-well plate (7 concentrations) in triplicate. MT-4 cells were next mixed with HIV-IIIb at an m.o.i. of 0.1 and 20 μl of virus/cell mixture (˜2000 cells) was immediately added to each well containing 20 μl of diluted compound. The plates were then incubated at 37° C. for 5 days. After 5 days of incubation, 100 μl of CellTiter-Glo™ Reagent (catalog # G7571, Promega Biosciences, Inc., Madison, Wis.) was added to each well containing MT-2 cells and 40 μl to each well containing MT-4 cells. Cell lysis was carried out by incubating at room temperature for 10 min and then chemiluminescence was read.

[2] = target: HIV integrase (Human immunodeficiency virus type 1 group M subtype B, UniProt P04585); experiment: biochemical
Description: Representative compounds of the invention were tested for biological activity by methods including anti-HIV assay, measuring inhibition of HIV-integrase strand transfer catalysis, and cytotoxicity.
HIV Integrase Assay (IC50 Determination)
The HIV Integrase assay is carried out in Reacti-Bind High Binding Capacity Streptavidin coated plates (Pierce # 15502) in 100 μl reactions. The wells of the plate are rinsed once with PBS. Each well is then coated at room temperature for 1 h with 100 μl of 0.14 μM Donor DNA with the following sequence:
After coating, the plate was washed twice with PBS. 3′processing of the Donor DNA is started by adding 80 μl of Integrase/buffer mixture (25 mM HEPES, pH 7.3, 12.5 mM DTT, 93.75 mM NaCl, 12.5 mM MgCl2, 1.25% Glycerol, 0.3125 uM integrase) to each well. 3′processing is allowed to proceed for 30 min at 37° C., after which, 10 μl of test compound and 10 μl of 2.5 uM DIG-labeled Target DNA with the following sequence:
are added to each well to allow strand transfer to proceed for 30 min at 37° C. The plate is then washed three times with 2×SSC for 5 min and rinsed once with PBS. For detection of integrated product, 100 μl of a 1/2000 dilution of HRP-conjugated anti-DIG antibody (Pierce #31468) are added to each well and incubated for 1 hour. The plate was then washed three times for 5 min each, with 0.05% Tween-20 in PBS. For signal development and amplification, 100 μl of SuperSignal ELISA Femto Substrate (Pierce #37075) are added to each well. Chemiluminescence (in relative light units) is read immediately at 425 nm in the SPECTRAmax GEMINI Microplate Spectrophotometer using the end point mode at 5 sec per well.
For IC50 determinations, eight concentrations of test compounds in a 1/2.2 dilution series are used.

Row | Compound | EC50 ([1]; MT-4 cells, HIV-IIIb, 5 days) [nM] | IC50 [2] [nM] | EC50 [1] [nM]
1 | O=C1c2c(c(N3C(=O)CCC3=O)c3cccnc3c2O)CN1Cc1ccc(F)cc1 [Compound 226, 1-(7-(4-fluorobenzyl)-9-hydroxy-8-oxo-7,8-dihydro-6H-pyrrolo[3,4-g]quinolin-5-yl)pyrrolidine-2,5-dione] | < 60 | < 60 | 
2 | CCN(CC)CCS(=O)(=O)N(C)c1c2c(c(O)c3ncccc13)C(=O)N(Cc1ccc(F)cc1)C2 [Compound 161, 2-(diethylamino)-N-(7-(4-fluorobenzyl)-9-hydroxy-8-oxo-7,8-dihydro-6H-pyrrolo[3,4-g]quinolin-5-yl)-N-methylethanesulfonamide] | < 60 | 60 to 1000 | 
3 | CN1CCCN(c2c3c(c(O)c4ncccc24)C(=O)N(Cc2ccc(F)cc2)C3)C1=O [Compound 224, 7-(4-fluorobenzyl)-9-hydroxy-5-(3-methyl-2-oxo-tetrahydropyrimidin-1(2H)-yl)-6,7-dihydropyrrolo[3,4-g]quinolin-8-one] |  | < 60 | 60 to 1000
4 | CN(c1c2c(c(O)c3ncccc13)C(=O)N(Cc1cccc(Cl)c1)C2)S(C)(=O)=O [Compound 175, N-(7-(3-chlorobenzyl)-9-hydroxy-8-oxo-7,8-dihydro-6H-pyrrolo[3,4-g]quinolin-5-yl)-N-methylmethanesulfonamide] | < 60 | 60 to 1000 | 
5 | CN(c1c2c(c(O)c3ncccc13)C(=O)N(Cc1ccc(F)cc1C#N)C2)S(C)(=O)=O [Compound 100, N-(7-(2-cyano-4-fluorobenzyl)-9-hydroxy-8-oxo-7,8-dihydro-6H-pyrrolo[3,4-g]quinolin-5-yl)-N-methylmethanesulfonamide] | 60 to 1000 | 60 to 1000 | 
6 | CN(C)S(=O)(=O)Nc1c2c(c(O)c3ncccc13)C(=O)N(Cc1ccc(F)cc1)C2 [Compound 41, N-(7-(4-fluorobenzyl)-9-hydroxy-8-oxo-7,8-dihydro-6H-pyrrolo[3,4-g]quinolin-5-yl)-N′,N′-dimethylsulfamide] | < 60 | 60 to 1000 | 
7 | CN(C)C(=O)N(C)c1c2c(c(O)c3ncccc13)C(=O)N(Cc1ccc(F)cc1)C2 [Compound 171, 1-(7-(4-fluorobenzyl)-9-hydroxy-8-oxo-7,8-dihydro-6H-pyrrolo[3,4-g]quinolin-5-yl)-1,3,3-trimethylurea] | < 60 | < 60 | 
8 | CN(c1c2c(c(O)c3ncccc13)C(=O)N(Cc1ccc(F)cc1)C2)S(=O)(=O)CCN1CCCCC1 [Compound 162, N-(7-(4-fluorobenzyl)-9-hydroxy-8-oxo-7,8-dihydro-6H-pyrrolo[3,4-g]quinolin-5-yl)-N-methyl-2-(piperidin-1-yl)ethanesulfonamide] | 60 to 1000 | 60 to 1000 | 
9 | CN(C)C(=O)C(=O)N(C)c1c2c(c(O)c3ncccc13)C(=O)N(Cc1ccc(F)cc1)C2 [Compound 62, N1-(7-(4-fluorobenzyl)-9-hydroxy-8-oxo-7,8-dihydro-6H-pyrrolo[3,4-g]quinolin-5-yl)-N1,N2,N2-trimethyloxalamide] | < 60 | 60 to 1000 | 
10 | CC(C)OC(=O)Oc1c2c(c(N(C)S(C)(=O)=O)c3cccnc13)CN(Cc1ccc(F)cc1)C2=O [Compound 34, 7-(4-fluorobenzyl)-5-(N-methylmethan-5-ylsulfonamido)-8-oxo-7,8-dihydro-6H-pyrrolo[3,4-g]quinolin-9-yl isopropyl carbonate] | < 60 | > 1000 | 
11 | CNC(=O)c1cc(F)ccc1CN1Cc2c(c(O)c3ncccc3c2N(C)S(C)(=O)=O)C1=O [Compound 88] | < 60 | 60 to 1000 | 
12 | CN(c1c2c(c(O)c3ncccc13)C(=O)N(Cc1ccc(F)cc1)C2)S(C)(=O)=O [Compound 29, N-(7-(4-fluorobenzyl)-9-hydroxy-8-oxo-7,8-dihydro-6H-pyrrolo[3,4-g]quinolin-5-yl)-N-methylmethanesulfonamide] | < 60 | < 60 | 
13 | CN(C)C(=O)c1cc(F)ccc1CN1Cc2c(c(O)c3ncccc3c2N(C)S(C)(=O)=O)C1=O [Compound 90, 5-fluoro-2-((9-hydroxy-5-(N-methylmethylsulfonamido)-8-oxo-6H-pyrrolo[3,4-g]quinolin-7(8H)-yl)methyl)-N,N-dimethylbenzamide] | < 60 | 60 to 1000 | 
14 | CC(C)C(=O)Nc1c2c(c(O)c3ncccc13)C(=O)N(Cc1ccc(F)cc1)C2 [Compound 67, N-(7-(4-fluorobenzyl)-9-hydroxy-8-oxo-7,8-dihydro-6H-pyrrolo[3,4-g]quinolin-5-yl)isobutyramide] | < 60 | < 60 | 
15 | COc1ccc(CN2Cc3c(c(O)c4ncccc4c3N(C)S(C)(=O)=O)C2=O)c(OC)c1 [Compound 143, N-(7-(2,4-dimethoxybenzyl)-9-hydroxy-8-oxo-7,8-dihydro-6H-pyrrolo[3,4-g]quinolin-5-yl)-N-methylmethanesulfonamide] | 60 to 1000 | 60 to 1000 | 
16 | CN(c1c2c(c(O)c3ncccc13)C(=O)N(Cc1ccc(Cl)cc1)C2)S(C)(=O)=O [Compound 183, N-(7-(4-chlorobenzyl)-9-hydroxy-8-oxo-7,8-dihydro-6H-pyrrolo[3,4-g]quinolin-5-yl)-N-methylmethanesulfonamide] | < 60 | 60 to 1000 | 
17 | CN(Cc1ccncc1)S(=O)(=O)N(C)c1c2c(c(O)c3ncccc13)C(=O)N(Cc1ccc(F)cc1)C2 [Compound 136, N-(7-(4-fluorobenzyl)-9-hydroxy-8-oxo-7,8-dihydro-6H-pyrrolo[3,4-g]quinolin-5-yl)-N-methyl-N′-methyl-N′-(pyridin-4-ylmethyl)sulfamide] | 60 to 1000 | 60 to 1000 | 
18 | CN(c1c2c(c(O)c3ncccc13)C(=O)N(Cc1ccc(F)cc1S(C)(=O)=O)C2)S(C)(=O)=O [Compound 106, N-(7-(4-fluoro-2-(methylsulfonyl)benzyl)-9-hydroxy-8-oxo-7,8-dihydro-6H-pyrrolo[3,4-g]quinolin-5-yl)-N-methylmethanesulfonamide] | < 60 | 60 to 1000 | 
19 | CC(C)C(=O)N(C)c1c2c(c(O)c3ncccc13)C(=O)N(Cc1ccc(F)cc1)C2 [Compound 69, N-(7-(4-fluorobenzyl)-9-hydroxy-8-oxo-7,8-dihydro-6H-pyrrolo[3,4-g]quinolin-5-yl)-N-methylisobutyramide] | < 60 | < 60 | 
20 | CN(c1c2c(c(OCOC(=O)OC3CCCC3)c3ncccc13)C(=O)N(Cc1ccc(F)cc1)C2)S(C)(=O)=O [Compound 30, (7-(4-fluorobenzyl)-5-(N-methylmethan-5-ylsulfonamido)-8-oxo-7,8-dihydro-6H-pyrrolo[3,4-g]quinolin-9-yloxy)methyl cyclopentyl carbonate] | 60 to 1000 | > 1000 | 
21 | CN(c1c2c(c(O)c3ncccc13)C(=O)N(Cc1cccc(Cl)c1F)C2)S(C)(=O)=O [Compound 177, N-(7-(3-chloro-2-fluorobenzyl)-9-hydroxy-8-oxo-7,8-dihydro-6H-pyrrolo[3,4-g]quinolin-5-yl)-N-methylmethanesulfonamide] | < 60 | 60 to 1000 | 
22 | O=C1c2c(c(N3CCCS3(=O)=O)c3cccnc3c2O)CN1Cc1ccc(F)cc1 [Compound 52, N-(7-(4-fluorobenzyl)-9-hydroxy-8-oxo-7,8-dihydro-6H-pyrrolo[3,4-g]quinolin-5-yl)-N-2-dioxoisothiazolidine] | < 60 | < 60 | 
23 | CN(c1c2c(c(O)c3ncccc13)C(=O)N(Cc1ccc(F)cc1S(=O)(=O)N(C)C)C2)S(C)(=O)=O [Compound 109, 5-fluoro-2-((9-(hydroxy)-5-(N-methylmethylsulfonamido)-8-oxo-6H-pyrrolo[3,4-g]quinolin-7(8H)-yl)methyl)-N,N-dimethylbenzenesulfonamide] | < 60 | 60 to 1000 | 
24 | CN(c1c2c(c(O)c3ncccc13)C(=O)N(Cc1ccc(F)cc1)C2)S(=O)(=O)CCCn1ccnc1 [Compound 49, N-(7-(4-fluorobenzyl)-9-hydroxy-8-oxo-7,8-dihydro-6H-pyrrolo[3,4-g]quinolin-5-yl)-3-(1 H-imidazol-1-yl)-N-methylpropane-1-sulfonamide] | < 60 |  | 
25 | CC(=O)N(C)c1c2c(c(O)c3ncccc13)C(=O)N(Cc1ccc(F)cc1)C2 [Compound 64, N-(7-(4-fluorobenzyl)-9-hydroxy-8-oxo-7,8-dihydro-6H-pyrrolo[3,4-g]quinolin-5-yl)-N-methylacetamide] | < 60 | < 60 | 
26 | CCNS(=O)(=O)N(CC)c1c2c(c(O)c3ncccc13)C(=O)N(Cc1ccc(F)cc1)C2 [Compound 232] | < 60 |  | 
27 | CN(c1c2c(c(O)c3ncccc13)C(=O)N(Cc1ccc(F)cc1)C2)S(=O)(=O)CCCC#N [Compound 48, 3-cyano-N-(7-(4-fluorobenzyl)-9-hydroxy-8-oxo-7,8-dihydro-6H-pyrrolo[3,4-g]quinolin-5-yl)-N-methylpropane-1-sulfonamide] | < 60 |  | 
28 | CN(c1c2c(c(O)c3ncccc13)C(=O)N(Cc1ccc(F)cc1)C2)S(=O)(=O)CCCN1CCOCC1 [Compound 46, N-(7-(4-fluorobenzyl)-9-hydroxy-8-oxo-7,8-dihydro-6H-pyrrolo[3,4-g]quinolin-5-yl)-N-methyl-3-morpholinopropane-1-sulfonamide] | < 60 |  | 
